# Experimental data published in US20040102454A1, “Phenylahistin and the phenylahistin analogs, a new class of anti-tumor compounds” (priority 1998, published 2004).
# Experiments:
# [1] = test system: Lewis Lung Carcinoma cells; assay: In vivo antitumor activity against Lewis Lung Carcinoma
# Description: (§1) Male BDF1 mice (6 weeks old) were inoculated subcutaneously in the right flank region with Lewis Lung Carcinoma cells (1×10^5 cells/body) on day 0. PLH [(−)-PLH content; 41.7%] was suspended in 10% ethanol-saline, and was administered daily at a dose of 24 mg/kg, 72 mg/kg, or 240 mg/kg intraperitoneally, as a single injection (0.2 ml/body), from days 1 to 14. Each group consisted of six mice. Mice were weighed, and the length (L) and the width (W) of the tumor were measured three times a week. On day 15, mice were sacrificed, and the tumor was excised and weighed. The estimated tumor weight (ETW) was calculated according to the following formula:
# (§2) ETW (mg)=L (mm)×W^2 (mm^2 )/2,
# where L represents the length of the tumor and W represents the width of the tumor. The suppression rate was calculated according to the following formula:
# (§3) Suppression rate (%)=[1×(TWt/TWc)]×100,
# (§4) Average and standard errors were calculated for each group. Variance analysis was performed by the Bartlett method (significance level: 5%), and if the variance was uniform, a Dunnett's multiple comparison test was performed. However, if the variance was not uniform, rank conversion was performed followed by variance analysis again by the Bartlett method (significance level: 5%). Significance was established at the p<0.05 level.
# Colon 26 cells = assay: In vivo antitumor activity against Colon 26
# Description: as §1, §2, §3, §4
# Male CDFI mice (6 weeks old) were inoculated subcutaneously in the right flank region with Colon 26 cells (1×10^5 cells/body) on day 0. Each group consisted of six mice. Preparation and administration of PLH, and the evaluation of antitumor activity was carried out as described for Lewis Lung Carcinoma, in EXAMPLE 14.
# LOX-IMVI = assay: HCC panel assay, sulforhodamine B; type: cell-based; details: Melanoma, (−)-PLH content 24.1%
# Description: (§5) The antitumor activity of PLH was evaluated by the Human Cancer Cell Line Panel (HCC panel) assay, see Yamori T., Jap. J Cancer Chemother., (1997), 24, 129-35. This HCC panel consists of 38 tumor cell lines including 7 lung cancer, 6 stomach, 6 colon, 5 ovary, 6 central nerve system, 5 breast, 2 kidney and 1 melanoma cell lines. Each tumor cell was seeded in 96-well tissue culture plates and incubated overnight. Various concentrations (5 doses; final 10^−4, 10^−5, 10^−6, 10^−7 and 10^−8 M) of PLH were added, and the cells were incubated for 48 hours. […] All mice were obtained from Japan SLC (Shizuoka, Japan), P388 leukemia cells were obtained from Dainippon Pharmaceuticals Inc. (Osaka, Japan), Lewis Lung Carcinoma from Riken Cell Bank (Tsukuba, Japan), and Colon 26 cells from the National Cancer Center, Japan (Tokyo, Japan).
# OVCAR-4 = assay: HCC panel assay, sulforhodamine B; type: cell-based; details: OVCAR-4, Ovary, (−)-PLH content 24.1%
# Description: as §5
# DMS114 = assay: HCC panel assay, sulforhodamine B; type: cell-based; details: DMS114, Lung, (−)-PLH content 24.1%
# Description: as §5
# U251 = assay: HCC panel assay, sulforhodamine B; type: cell-based; details: U251, CNS, (−)-PLH content 24.1%
# Description: as §5
# OVCAR-5 = assay: HCC panel assay, sulforhodamine B; type: cell-based; details: OVCAR-5, Ovary, (−)-PLH content 24.1%
# Description: as §5
# St-4 = assay: HCC panel assay, sulforhodamine B; type: cell-based; details: St-4, Stomach, (−)-PLH content 24.1%
# Description: as §5
# MDA-MB-231 = assay: HCC panel assay, sulforhodamine B; type: cell-based; details: MDA-MB-231, Breast, (−)-PLH content 24.1%
# Description: as §5
# SNB-78 = assay: HCC panel assay, sulforhodamine B; type: cell-based; details: SNB-78, CNS, (−)-PLH content 24.1%
# Description: as §5
# HBC-4 = assay: HCC panel assay, sulforhodamine B; type: cell-based; details: HBC-4, Breast, (−)-PLH content 24.1%
# Description: as §5
# SF-539 = assay: HCC panel assay, sulforhodamine B; type: cell-based; details: SF-539, CNS, (−)-PLH content 24.1%
# Description: as §5
# [2] = test system: microtubules in A549 cells; assay: Immunofluorescence staining of microtubules; type: cell-based, human; details: 6 hours incubation
# Description: Immunocytochemical staining was performed using the method described by Yahara, I. et al., Cell (1978) 15, 251-259. A549 cells were cultured on glass coverslips and incubated with the test drug for 6 hours. The cells were then fixed with 3.7% formaldehyde for 30 min, permeabilized with 0.2% Triton X-100 for 5 min, and incubated with a mouse monoclonal antibody against α-tubulin (Calbiochem®, Oncogene Research Products, Cambridge, Mass.), followed by incubation with fluorescein isothiocyanate-conjugated goat anti-mouse IgG from Cosmo Bio Co., (Tokyo, Japan), and the cells were examined under an immunofluorescent microscope.
# [3] = Homo sapiens, read-out: GL50 (the source's name)
# [4] = Homo sapiens, read-out: LC50 (the source's name)
# [5] = calculated from (−)-PLH content 41.7%
smiles,measurement,setting,value
"C=CC(C)(C)c1[nH]cnc1/C=C1\NC(=O)[C@H](Cc2ccccc2)NC1=O (racemic) [PLH, phenylahistin]",rate of suppression (excised tumor weight),[1]; 24 mg/kg/day,9.9%
same,weight of the excised tumor on the fifteenth day,[1]; 24 mg/kg/day,"2,941 mg"
same,estimated tumor weight (ETW),"[1]; 24 mg/kg/day, day 7",86 mg
same,estimated tumor weight (ETW),"[1]; 24 mg/kg/day, day 15","2,244 mg"
same,rate of suppression (excised tumor weight),[1]; 72 mg/kg/day,27.1%
same,weight of the excised tumor on the fifteenth day,[1]; 72 mg/kg/day,"2,380 mg"
same,estimated tumor weight (ETW),"[1]; 72 mg/kg/day, day 7",34 mg
same,estimated tumor weight (ETW),"[1]; 72 mg/kg/day, day 15","2,142 mg"
same,mice died,"[1]; 72 mg/kg/day, on day 11",1 mouse
same,body weight,[1]; 240 mg/kg/day,"markedly lower than control values after day 3, and significantly lower on day 6"
same,rate of suppression (excised tumor weight),[1]; 240 mg/kg/day,81.0%
same,weight of the excised tumor on the fifteenth day,[1]; 240 mg/kg/day,619 mg
same,estimated tumor weight (ETW),"[1]; 240 mg/kg/day, day 7",34 mg
same,suppression of the ETW,"[1]; 240 mg/kg/day, day 10",81.8%
same,suppression of the ETW,"[1]; 240 mg/kg/day, day 13",82.3%
same,estimated tumor weight (ETW),"[1]; 240 mg/kg/day, day 15",617 mg
same,suppression of the ETW,"[1]; 240 mg/kg/day, day 15",73.2%
same,mice died,"[1]; 240 mg/kg/day, on day 13",1 mouse
same,body weight,[1]; 24 and 72 mg/kg/day,little change in body weight
same,95% confidence limit of ED50,[1]; PLH with (−)-PLH content 41.7%,22.0˜504.1 mg/kg/day
same,ED50,"[1]; linear regression of suppression rate, PLH with (−)-PLH content 41.7%",105.3 mg/kg/day
same,mice died,"[1]; mouse, in vivo",None
same,rate of suppression (excised tumor weight),Colon 26 cells; 24 mg/kg/day,4.0%
same,weight of the excised tumor on the fifteenth day,Colon 26 cells; 24 mg/kg/day,"1,113 mg"
same,body weight,Colon 26 cells; 24 mg/kg/day and 72 mg/kg/day,No marked changes in the weight
same,increments of ETW,Colon 26 cells; 24 mg/kg/day and 72 mg/kg/day,slightly lower than those of the control group
same,rate of suppression (excised tumor weight),Colon 26 cells; 72 mg/kg/day,27.3%
same,weight of the excised tumor on the fifteenth day,Colon 26 cells; 72 mg/kg/day,843 mg
same,body weight,Colon 26 cells; 240 mg/kg/day,lower than that of the control group from day 3
same,mice died,Colon 26 cells; 240 mg/kg/day,"one mouse died on day 12, two died on day 13 and one died on day 14"
same,rate of suppression (excised tumor weight),Colon 26 cells; 240 mg/kg/day,81.8%
same,weight of the excised tumor on the fifteenth day,Colon 26 cells; 240 mg/kg/day,211 mg
same,ETW,"Colon 26 cells; 240 mg/kg/day, day 7",14 mg
same,suppression rate (ETW),"Colon 26 cells; 240 mg/kg/day, day 10",64.4%
same,suppression rate (ETW),"Colon 26 cells; 240 mg/kg/day, day 13",78.8%
same,ETW,"Colon 26 cells; 240 mg/kg/day, day 15",254 mg
same,suppression rate (ETW),"Colon 26 cells; 240 mg/kg/day, day 15",85.4%
same,95% confidence limit of ED50,Colon 26 cells; PLH with (−)-PLH content 41.7%,29.0˜397.7 mg/kg/day
same,ED50,Colon 26 cells; PLH with (−)-PLH content 41.7%,107.3 mg/kg/day
same,mice died,"Colon 26 cells; mouse, in vivo",No mice died
same,IC50,LOX-IMVI; [3],1.3 µM
same,CC50,LOX-IMVI; [4],> 100 µM
same,TGI,LOX-IMVI,>100 µM
same,IC50,OVCAR-4; [3],40 µM
same,CC50,OVCAR-4; [4],> 100 µM
same,TGI,OVCAR-4,>100 µM
same,TGI,DMS114,2.4 µM
same,IC50,"DMS114; Homo sapiens, DMS-114, read-out: GL50 (the source's name)",0.33 µM
same,CC50,"DMS114; Homo sapiens, DMS-114, read-out: LC50 (the source's name)",> 100 µM
same,IC50,"U251; Homo sapiens, U-251, read-out: GL50 (the source's name)",0.44 µM
same,CC50,"U251; Homo sapiens, U-251, read-out: LC50 (the source's name)",> 100 µM
same,TGI,U251,10 µM
same,IC50,OVCAR-5; [3],1.2 µM
same,CC50,OVCAR-5; [4],> 100 µM
same,TGI,OVCAR-5,>100 µM
same,IC50,St-4; [3],40 µM
same,CC50,St-4; [4],> 100 µM
same,TGI,St-4,>100 µM
same,IC50,MDA-MB-231; [3],0.64 µM
same,CC50,MDA-MB-231; [4],> 100 µM
same,TGI,MDA-MB-231,6 µM
same,IC50,SNB-78; [3],1.3 µM
same,CC50,SNB-78; [4],> 100 µM
same,TGI,SNB-78,>100 µM
same,TGI,HBC-4,>100 µM
same,IC50,"HBC-4; Homo sapiens, HBC4, read-out: GL50 (the source's name)",0.46 µM
same,CC50,"HBC-4; Homo sapiens, HBC4, read-out: LC50 (the source's name)",> 100 µM
same,IC50,SF-539; [3],0.23 µM
same,CC50,SF-539; [4],11 µM
same,TGI,SF-539,0.6 µM
C=CC(C)(C)c1[nH]cnc1/C=C1\NC(=O)[C@H](Cc2ccccc2)NC1=O [(−)-phenylahistin],microtubule structure (anti α-tubulin staining),[2],disappearance of the microtubule network
same,"95% confidence limit of ED50, as (−)-PLH",[1]; [5],9.2˜210.2 mg/kg/day
same,"ED50, calculated dose of (−)-PLH",[1]; [5],43.9 mg/kg/day
same,"95% confidence limit of ED50, as (−)-PLH",Colon 26 cells; [5],12.1˜165.8 mg/kg/day
same,"ED50, calculated dose of (−)-PLH",Colon 26 cells; [5],44.7 mg/kg/day
